According to ChEMBL document CHEMBL1138377, “N-Substituted carbazolyloxyacetic acids modulate Alzheimer associated gamma-secretase” (Bioorg Med Chem Lett, 2007):
Activity calls are given as the source filed them. The rule behind the calls is not given here.

Key:
H4 = test: Cytotoxicity against human H4 cells assessed as reduction of viability; format: cell-based
Gamma-secretase [1] = test: Effect on gamma-secretase activity in human H4 cells expressing APP695 assessed as reduction of Amyloid beta42 formation LPECL assay; format: cell-based
Gamma-secretase [2] = test: Effect on gamma-secretase activity in human H4 cells expressing APP695 assessed as reduction of Amyloid beta-40 formation LPECL assay; format: cell-based
Gamma-secretase [3] = test: Effect on gamma-secretase activity in human H4 cells expressing APP695 assessed as increase in Amyloid beta-38 formation by LPECL assay; format: cell-based; settings: read-out: IC50 (the source's name)
[4] = molecular target: T1, Prostaglandin G/H synthase 2 (Homo sapiens) (UniProt P35354); test: Activity of COX2 at 10 uM
T1 sequence (whole entry): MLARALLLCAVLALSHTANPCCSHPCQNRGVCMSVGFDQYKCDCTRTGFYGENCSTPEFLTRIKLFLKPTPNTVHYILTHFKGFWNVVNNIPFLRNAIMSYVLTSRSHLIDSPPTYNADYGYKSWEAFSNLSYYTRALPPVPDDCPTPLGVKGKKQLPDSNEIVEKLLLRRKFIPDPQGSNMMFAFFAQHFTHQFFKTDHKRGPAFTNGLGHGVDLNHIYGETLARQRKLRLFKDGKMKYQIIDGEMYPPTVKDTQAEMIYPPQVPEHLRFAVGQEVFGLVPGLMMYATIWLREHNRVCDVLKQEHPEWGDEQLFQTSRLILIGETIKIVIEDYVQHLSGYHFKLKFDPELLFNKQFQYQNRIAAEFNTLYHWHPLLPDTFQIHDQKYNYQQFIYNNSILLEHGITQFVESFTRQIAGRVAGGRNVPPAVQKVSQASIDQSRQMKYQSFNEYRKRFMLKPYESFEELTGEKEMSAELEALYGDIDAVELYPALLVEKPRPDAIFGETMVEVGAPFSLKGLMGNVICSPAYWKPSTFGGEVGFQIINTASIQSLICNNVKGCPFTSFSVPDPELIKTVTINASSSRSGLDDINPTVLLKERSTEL

[5] = molecular target: Prostaglandin G/H synthase 1 (Homo sapiens) (UniProt P23219); test: Activity of COX1 at 10 uM
Sequence of Prostaglandin G/H synthase 1 (Homo sapiens) (P23219 whole entry): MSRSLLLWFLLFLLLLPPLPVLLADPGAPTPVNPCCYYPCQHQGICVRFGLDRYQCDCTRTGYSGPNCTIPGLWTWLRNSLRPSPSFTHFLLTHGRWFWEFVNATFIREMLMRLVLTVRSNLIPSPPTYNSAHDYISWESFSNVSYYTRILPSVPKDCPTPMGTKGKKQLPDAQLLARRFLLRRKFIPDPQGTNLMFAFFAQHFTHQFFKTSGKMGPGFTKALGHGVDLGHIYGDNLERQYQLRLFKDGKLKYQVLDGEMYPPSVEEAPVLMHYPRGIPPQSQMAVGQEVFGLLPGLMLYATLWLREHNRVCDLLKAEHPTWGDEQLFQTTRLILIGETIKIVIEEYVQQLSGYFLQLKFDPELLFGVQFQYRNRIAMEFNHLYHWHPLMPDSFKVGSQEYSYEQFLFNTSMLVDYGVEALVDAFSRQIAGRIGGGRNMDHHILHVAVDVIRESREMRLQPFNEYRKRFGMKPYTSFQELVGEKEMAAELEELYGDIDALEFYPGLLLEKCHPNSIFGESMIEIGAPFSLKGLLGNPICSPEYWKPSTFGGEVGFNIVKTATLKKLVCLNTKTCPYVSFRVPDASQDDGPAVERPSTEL

Structure (SMILES) | IC50 (Gamma-secretase [1]) | IC50 (Gamma-secretase [2]) | EC50 (Gamma-secretase [3]) | Activity [4] | Activity [5] | Activity (H4)
O=C(O)COc1ccc2c3ccccc3n(S(=O)(=O)c3ccc(-c4ccccc4)cc3)c2c1 | 24 µM | 40 µM | 13 µM |  |  | 20 µM
O=C(O)COc1ccc2c3ccccc3n(S(=O)(=O)c3cccc([N+](=O)[O-])c3)c2c1 | > 40 µM | > 40 µM | 16 µM |  |  | 40 µM
CC(C)c1cc(C(C)C)c(S(=O)(=O)n2c3ccc(Cl)cc3c3ccc(C(C)C(=O)O)cc32)c(C(C)C)c1 (configuration not stated) | 8.5 µM | > 20 µM | 9.3 µM |  |  | 
O=C(O)COc1ccc2c3ccccc3n(S(=O)(=O)c3cc(F)cc(F)c3)c2c1 | > 40 µM | > 40 µM | 13 µM |  |  | 40 µM
CCCc1ccc(S(=O)(=O)n2c3ccccc3c3ccc(OCC(=O)O)cc32)cc1 | 38 µM | > 40 µM |  |  |  | > 40 µM
CC(C)c1cc(C(C)C)c(S(=O)(=O)n2c3ccccc3c3ccc(OCC(=O)O)cc32)c(C(C)C)c1 | 7.5 µM | 19 µM | 7.8 µM | inactive | inactive | 20 µM
CCCCCCCCCCn1c2ccccc2c2ccc(OCC(=O)O)cc21 | 11 µM | > 40 µM |  |  |  | > 40 µM
O=C(O)COc1ccc2c3ccccc3n(S(=O)(=O)c3cc(C(F)(F)F)cc(C(F)(F)F)c3)c2c1 | > 40 µM | > 40 µM | > 40 µM |  |  | 20 µM
Cc1ccc(S(=O)(=O)n2c3ccccc3c3ccc(OCC(=O)O)cc32)cc1 | 39 µM | > 40 µM | 13 µM |  |  | 20 µM
CCCCCCCCc1ccc(S(=O)(=O)n2c3ccccc3c3ccc(OCC(=O)O)cc32)cc1 | 37 µM | > 40 µM |  |  |  | > 40 µM
C[C@H](c1ccc(F)cc1CCCC(=O)O)N(c1cc(F)ccc1F)S(=O)(=O)c1ccc(Cl)cc1 | 0.0071 µM |  |  |  |  | 
CCCCCCCCCCn1c2ccc(Cl)cc2c2ccc(C(C)C(=O)O)cc21 (configuration not stated) | 2.9 µM | > 40 µM | 5.8 µM |  |  | 

The next lines start with results.

IC50 (Gamma-secretase [1]) | IC50 (Gamma-secretase [2]) | EC50 (Gamma-secretase [3]) | Activity [4] | Activity [5] | Structure (SMILES) | Activity (H4)
> 40 µM | > 40 µM | > 40 µM |  |  | O=C(O)COc1ccc2c(c1)[nH]c1ccccc12 | > 40 µM
32 µM | > 40 µM | 32 µM |  |  | O=C(O)COc1ccc2c3ccccc3n(S(=O)(=O)c3ccc(Cl)cc3)c2c1 | 40 µM
19 µM | > 40 µM | 24 µM |  |  | CCCCCCCCn1c2ccccc2c2ccc(OCC(=O)O)cc21 | > 40 µM
17 µM | > 40 µM | 30 µM |  |  | CCCCCCCCCn1c2ccccc2c2ccc(OCC(=O)O)cc21 | > 40 µM
> 40 µM | > 40 µM | > 40 µM |  |  | O=C(O)COc1ccc2c3ccccc3n(S(=O)(=O)c3ccccc3Br)c2c1 | 40 µM
